Test systems include ACHN renal; HT29 colon; KM12 colon; NCI-H23 lung; NCI/ADR-RES ovarian; OVCAR-8 ovarian; SF-268 CNS; SF-539 CNS; U251 CNS; UACC-257 melanoma.
What all share (test): NCI anticancer screen, dose series, 48 h

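Briefly, cells in 96-well plates were exposed to five compound concentrations for 48 h, and endpoints were estimated by linear interpolation. TGI is the concentration that stops growth completely.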 Where a SMILES comes first, the peptide text is derived from it. The star is where a group is joined. Fmoc = O=C(OCC1c2ccccc2-c2ccccc21)*; Boc = CC(C)(C)OC(=O)* Bounds are passed on as bounds.

As for `Fc1ccc(-c2sc(-c3cccs3)cc2Cc2cccs2)cc1`, the TGI in the assay with ACHN renal, in the assay on HT29 colon, with KM12 colon, in the assay on NCI-H23 lung, with NCI/ADR-RES ovarian and in the assay on OVCAR-8 ovarian was more than 100 µM in each case. Also, the TGI in the assay with SF-268 CNS, with SF-539 CNS, in the assay on U251 CNS and in the assay on UACC-257 melanoma was more than 100 µM in each case.

In the case of `O=C(C/C(=N/O)c1cc(-c2ccccc2)no1)c1ccccc1`, the TGI in the assay on ACHN renal was more than 100 µM; in the assay with HT29 colon, more than 100 µM; in the assay on KM12 colon, more than 100 µM; in the assay with NCI-H23 lung, 43.3 µM; in the assay with NCI/ADR-RES ovarian, 69.1 µM; in the assay on OVCAR-8 ovarian, 40.3 µM. For the same compound, the TGI is 42.5 µM in the assay on SF-268 CNS, 35 µM with SF-539 CNS, 60.5 µM in the assay with U251 CNS and more than 100 µM in the assay on UACC-257 melanoma.

For `O=C1C=C(OCCCCl)C(=O)c2c(O)ccc(O)c21`, the TGI was 2.96 µM with ACHN renal; 1.31 µM in the assay on HT29 colon; 3.37 µM with KM12 colon; 0.479 µM in the assay with NCI-H23 lung; 7.3 µM in the assay on NCI/ADR-RES ovarian; 7.59 µM in the assay with OVCAR-8 ovarian. In addition, the TGI with SF-268 CNS stood at 3.16 µM; in the assay on SF-539 CNS, 2.76 µM; with U251 CNS, 3.56 µM; in the assay with UACC-257 melanoma it was 0.358 µM.

On to `COc1ccc2cc(-c3nc(N)nc(N4N=C(C)CC4(C)C)n3)c(=N)oc2c1`, for which the TGI was 31.8 µM in the assay on ACHN renal; 31.7 µM with HT29 colon; 30.6 µM in the assay on KM12 colon; 31.8 µM with NCI-H23 lung; more than 100 µM in the assay with NCI/ADR-RES ovarian; 49.8 µM in the assay with OVCAR-8 ovarian. Besides, the TGI in the assay on SF-268 CNS amounted to 33.8 µM; with SF-539 CNS it was 30.2 µM; in the assay on U251 CNS, 41.9 µM; in the assay on UACC-257 melanoma it was 95.7 µM.

For the compound `CCN(CC)CCNc1ccc2nnn3c4ccc(O)cc4c(=O)c1c23`, the TGI was determined as 14.2 µM in the assay with ACHN renal; 15 µM with HT29 colon; 12.8 µM with KM12 colon; 19.7 µM with NCI-H23 lung; 12.2 µM in the assay with NCI/ADR-RES ovarian; 17.5 µM in the assay on OVCAR-8 ovarian. The TGI came out at 21.7 µM in the assay with SF-268 CNS, 18.4 µM in the assay on SF-539 CNS, 18.2 µM in the assay on U251 CNS and 24.9 µM in the assay with UACC-257 melanoma.

As to `CC(=O)C1=C(C)N(c2ccc(C)cc2)C2(O)C3=C(C(=O)c4ccccc4C3=O)C(O)=CC12Cl` (centres undefined), the TGI was more than 100 µM in the assay on ACHN renal; 60.1 µM with HT29 colon; 33.8 µM in the assay with KM12 colon; 34 µM in the assay on NCI-H23 lung; 28.3 µM in the assay on NCI/ADR-RES ovarian; 53.4 µM in the assay with OVCAR-8 ovarian. For the same compound, the TGI is more than 100 µM in the assay on SF-268 CNS, more than 100 µM with SF-539 CNS, more than 100 µM in the assay on U251 CNS and 55.6 µM in the assay on UACC-257 melanoma.

Turning to `c1ccc2c(c1)CCc1[nH]c3c(c1-2)-c1ccccc1CC3`, the TGI with ACHN renal, in the assay with HT29 colon, in the assay with KM12 colon, in the assay on NCI-H23 lung, in the assay on NCI/ADR-RES ovarian and in the assay with OVCAR-8 ovarian was more than 100 µM in each case. The TGI in the assay with SF-268 CNS, in the assay with SF-539 CNS, with U251 CNS and in the assay on UACC-257 melanoma was more than 100 µM each time.

On to `CC(C)(C)OC(=O)NCCCCC(NC(=O)C(Cc1c[nH]c2ccccc12)NC(=O)OCC1c2ccccc2-c2ccccc21)C(=O)N1CCCC1C(=O)NCC(N)=O` (centres undefined) (Fmoc-WK(Boc)PG-NH2; configuration not given here), for which the TGI with ACHN renal, in the assay on HT29 colon, with KM12 colon, in the assay on NCI-H23 lung, in the assay with NCI/ADR-RES ovarian and with OVCAR-8 ovarian was more than 100 µM each time. In addition, the TGI in the assay with SF-268 CNS, with SF-539 CNS, in the assay with U251 CNS and in the assay with UACC-257 melanoma was more than 100 µM throughout.

Turning to `OCCOc1ccccc2cccc1-2`, the TGI in the assay on ACHN renal, in the assay with HT29 colon, in the assay with KM12 colon, in the assay with NCI-H23 lung, with NCI/ADR-RES ovarian and with OVCAR-8 ovarian was more than 100 µM throughout. The TGI in the assay with SF-268 CNS, with SF-539 CNS, in the assay on U251 CNS and with UACC-257 melanoma was more than 100 µM each time.

For `C[C@@H](NC(=O)c1ccc(CNC(=O)/C=C/c2cccc(Oc3ccccc3)c2)cc1)c1ccccc1`, the TGI in the assay with ACHN renal was 36 µM; in the assay on HT29 colon, more than 100 µM; in the assay on KM12 colon, more than 100 µM; with NCI-H23 lung, more than 100 µM; in the assay with NCI/ADR-RES ovarian, more than 100 µM; in the assay on OVCAR-8 ovarian, more than 100 µM. The TGI in the assay with SF-268 CNS was 78 µM; in the assay with SF-539 CNS, 30.6 µM; in the assay on U251 CNS, more than 100 µM; with UACC-257 melanoma it was more than 100 µM.

For the compound `COC(=O)C1=C(C)C=C(N2CCOCC2)C(C(=O)OC)C1c1ccccc1` (centres undefined), the TGI with ACHN renal, in the assay with HT29 colon, with KM12 colon, in the assay on NCI-H23 lung, with NCI/ADR-RES ovarian and in the assay with OVCAR-8 ovarian was more than 10 µM throughout. The TGI in the assay with SF-268 CNS, in the assay with SF-539 CNS, with U251 CNS and in the assay with UACC-257 melanoma was more than 10 µM throughout.

Consider `CC(C)Cc1cc2c(cc1O)CCC1C2CC[C@@]2(C)C1CC[C@@H]2O` (some centres undefined), for which the TGI in the assay with ACHN renal was 20 µM; with HT29 colon, 21.6 µM; with KM12 colon, 17.4 µM; in the assay with NCI-H23 lung, 26.4 µM; in the assay with NCI/ADR-RES ovarian, 20.9 µM; in the assay on OVCAR-8 ovarian, 22.3 µM. The TGI stood at 39.4 µM in the assay with SF-268 CNS, 40.6 µM in the assay with SF-539 CNS, 27 µM in the assay with U251 CNS and 35.1 µM in the assay with UACC-257 melanoma.

Regarding `CSc1ccc(/C=C2\N=C(c3ccccc3)N(c3nc4cc(C)c(C)cc4s3)C2=O)cc1`, the TGI in the assay with ACHN renal is 58.6 µM; with HT29 colon it was 47.9 µM; in the assay with KM12 colon, more than 100 µM; in the assay on NCI/ADR-RES ovarian, more than 100 µM; in the assay with OVCAR-8 ovarian it was 43.9 µM; with SF-268 CNS, more than 100 µM. In addition, the TGI with SF-539 CNS was 40.9 µM; with U251 CNS it was 36.5 µM; with UACC-257 melanoma, more than 100 µM.
